From US9247759B2, “Identification of human T2R receptors that respond to bitter compounds that elicit the bitter taste in compositions, and the use thereof in assays to identify compounds that inhibit (block) bitter taste in compositions and use thereof” (SENOMYX, INC., priority 2007, dated 2016)
Where two headings read alike, the source gives them in different places.

How the values were obtained:
hT2R14 = hT2R14 (Homo sapiens (Human), UniProt Q9NYV8); experiment: hT2R14 antagonist high-throughput FLIPR assay, stable cell line with G16g44, agonist aristolochic acid; assay type: cell-based; details: read-out: hT2R14 IC50
Procedure: The inventors also used the automated fluorimetric […] system FLIPR using a slightly different protocol. A HEK293 cell line stably expressing G16gust44 was transfected with a hT2R expression plasmid, 24 hours later, the cells are loaded and analyzed on FLIPR.
After a ligand is identified for a particular hT2R, a HEK293 cell line stably expressing both the hT2R and G16gust44 are generated, facilitating future screening assays to identify other ligands that activate the particular hT2R or which modulate (block or enhance) the activation of this hT2R by another bitter ligand such as a bitter compound contained in coffee. This avoids the need for transient transfection.
To identify antagonists, cell lines stably expressing hT2R8 and hT2R14, respectively, together with the promiscuous chimeric G16g44 protein were generated as described in previous patent applications. A high-throughput assay was established using the stable cell lines and FLIPR (Fluorescent Imaging Plate Reader). An agonist of hT2R8 or hT2R14 was used to activate the receptors up to 70-80% of their respective maximal activity. For hT2R8, the agonist used was andrographolide (200 […]); for hT2R14, it was aristolochic acid (3 μM). To identify antagonists, compounds with diverse chemical structures were added together with the agonist.

hT2R8 = hT2R8 (Homo sapiens (Human), UniProt Q9NYW2); experiment: hT2R8 antagonist high-throughput FLIPR assay, stable cell line with G16g44, agonist andrographolide; assay type: cell-based
How it was run: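 Antagonist screen: compounds co-applied with agonist andrographolide at 200 μM, a dose giving 70–80% of maximal hT2R8 activation. Fluorescence measured by FLIPR in a stable HEK293 line expressing both hT2R8 and the promiscuous G16g44 protein.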

[1] = read-out: IC50 on hT2R8 bitter receptor
[2] = table after Example 10-97, read-out: hT2R8 IC50
[3] = table after Example 12-37, read-out: hT2R8 IC50
[4] = unit uM, read-out: IC50 on hT2R08 bitter receptor

hT2R8, sequence (Q9NYW2 whole entry): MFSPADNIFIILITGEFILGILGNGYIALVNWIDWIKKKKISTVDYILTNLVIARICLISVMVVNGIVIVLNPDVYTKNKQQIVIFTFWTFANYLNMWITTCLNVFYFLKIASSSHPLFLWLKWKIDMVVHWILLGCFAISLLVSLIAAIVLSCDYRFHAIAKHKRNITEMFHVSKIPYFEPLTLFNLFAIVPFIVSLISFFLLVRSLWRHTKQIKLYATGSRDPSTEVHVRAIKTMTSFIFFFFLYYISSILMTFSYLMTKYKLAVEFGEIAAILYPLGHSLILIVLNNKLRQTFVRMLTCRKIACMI
hT2R14, sequence (Q9NYV8 whole entry): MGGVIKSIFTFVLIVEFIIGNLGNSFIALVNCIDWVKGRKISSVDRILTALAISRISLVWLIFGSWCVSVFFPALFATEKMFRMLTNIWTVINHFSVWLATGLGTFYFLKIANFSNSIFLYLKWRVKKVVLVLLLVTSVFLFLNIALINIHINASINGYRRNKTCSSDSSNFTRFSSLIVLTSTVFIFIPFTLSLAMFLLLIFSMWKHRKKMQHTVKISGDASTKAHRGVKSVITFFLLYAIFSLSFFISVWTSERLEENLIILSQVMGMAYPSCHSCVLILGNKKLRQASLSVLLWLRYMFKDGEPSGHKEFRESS

Row | SMILES | IC50 (hT2R8; [1]) | IC50 (hT2R8; [2]) | further results
1 | Cn1c(=O)c2cc(S(=O)(=O)NC3CCCCC3)ccc2n(C)c1=O [Example 6-16, N-cyclohexyl-1,3-dimethyl-2,4-dioxo-1,2,3,4-tetrahydroquinazoline-6-sulfonamide] | – | – | IC50 (hT2R14; Table D): 7.24 µM
2 | COc1cc(OC)c(/C=C2\SC(=S)N(CCC(=O)O)C2=O)c(OC)c1 [Example 6-12, (Z)-3-(4-oxo-2-thioxo-5-(2,4,6-trimethoxybenzylidene)thiazolidin-3-yl)propanoic acid] | – | – | IC50 (hT2R14; Table D): 9.37 µM
3 | COc1ccc(CN(CC2CCC(C(=O)O)CC2)C(=S)Nc2ccccc2OC)cc1 (centres unmarked) [Example 5-112, 4-((1-(4-methoxybenzyl)-3-(2-methoxyphenyl)thioureido)methyl) cyclohexanecarboxylic acid] | – | – | IC50 (hT2R14; Table C): 8.85 µM
4 | COc1ccc(CN(Cc2ccccc2OC)S(=O)(=O)c2ccc(C(=O)O)cc2)cc1 [Example 5-121, 4-(N-(2-methoxybenzyl)-N-(4-methoxybenzyl)sulfamoyl)benzoic acid] | – | – | IC50 (hT2R14; Table C): 2.94 µM
5 | CC(=O)Nc1ccc(S(=O)(=O)N(Cc2ccc(F)cc2)CC2CCC(C(=O)O)CC2)cc1 (centres unmarked) [Example 5-124, 4-((4-acetamido-N-(4-fluorobenzyl)phenylsulfonamido)methyl) cyclohexanecarboxylic acid] | – | – | IC50 (hT2R14; Table C): 0.842 µM
6 | CCc1ccc(CN(CC2CCC(C(=O)O)CC2)C(=S)Nc2ccccc2C)cc1 (centres unmarked) [Example 5-113, 4-((1-(4-ethylbenzyl)-3-o-tolylthioureido)methyl) cyclohexanecarboxylic acid] | – | – | IC50 (hT2R14; Table C): 5.02 µM
7 | COc1ccc(CCN2C(=O)N(c3cnn(Cc4c(C)noc4C)c3)C(=O)C2(C)C)cc1OC [Example 12-49, 1-(3,4-dimethoxyphenethyl)-3-(1-((3,5-dimethylisoxazol-4-yl)methyl)-1H-pyrazol-4-yl)-5,5-dimethylimidazolidine-2,4-dione] | – | – | IC50 (hT2R8; [3]): 0.13 µM
8 | Cc1noc(C)c1Cn1cc(NC(=O)c2cccc(Cl)c2)cn1 [Example 4-80, 3-chloro-N-(1-((3,5-dimethylisoxazol-4-yl)methyl)-1H-pyrazol-4-yl)benzamide] | – | – | IC50 (hT2R8; Table A, read-out: hT2R8 IC50): 0.9 µM
9 | CC(=O)OC(C(=O)Nc1cnn(Cc2c(C)noc2C)c1)c1ccccc1 (centres unmarked) [Example 4-39, 2-(1-((3,5-dimethylisoxazol-4-yl)methyl)-1H-pyrazol-4-ylamino)-2-oxo-1-phenylethyl acetate] | – | – | IC50 (hT2R8; Table A, read-out: hT2R8 IC50): 0.83 µM
10 | COc1cccc(F)c1CN1C(=O)N(c2cnn(Cc3c(C)noc3C)c2)C(=O)C1(C)C [Example 12-65, 3-(1-((3,5-dimethylisoxazol-4-yl)methyl)-1H-pyrazol-4-yl)-1-(2-fluoro-6-methoxybenzyl)-5,5-dimethylimidazolidine-2,4-dione] | – | – | IC50 (hT2R8; [3]): 0.31 µM
11 | COc1cccc(C(=O)Nc2cn(Cc3c(C)noc3C)nc2C)c1 [Example 4-115, N-(1-((3,5-dimethylisoxazol-4-yl)methyl)-3-methyl-1H-pyrazol-4-yl)-3-methoxybenzamide] | – | – | IC50 (hT2R8; Table A, read-out: hT2R8 IC50): 9.25 µM
12 | Cc1noc(C)c1Cn1cc(NC(=O)c2cc(Cl)c3c(c2)OCCO3)cn1 [Example 4-91, 8-chloro-N-(1-((3,5-dimethylisoxazol-4-yl)methyl)-1H-pyrazol-4-yl)-2,3-dihydrobenzo[b][1,4]dioxine-6-carboxamide] | – | – | IC50 (hT2R8; Table A, read-out: hT2R8 IC50): 0.1 µM
13 | Cc1c[nH]c(C(=O)Nc2cnn(Cc3c(C)noc3C)c2)c1 [Example 4-45, N-(1-((3,5-dimethylisoxazol-4-yl)methyl)-1H-pyrazol-4-yl)-4-methyl-1H-pyrrole-2-carboxamide] | – | – | IC50 (hT2R8; Table A, read-out: hT2R8 IC50): 0.72 µM
14 | Cc1noc(C)c1Cn1cc(NC(=O)c2cccc(C#N)c2)cn1 [Example 4-10, 3-cyano-N-(1-((3,5-dimethylisoxazol-4-yl)methyl)-1H-pyrazol-4-yl)benzamide] | 0.2 µM | – | –
15 | Cc1noc(C)c1Cn1cc(NC(=S)Nc2ccccc2C#N)cn1 [Example 4-111, 1-(2-cyanophenyl)-3-(1-((3,5-dimethylisoxazol-4-yl)methyl)-1H-pyrazol-4-yl)thiourea] | – | – | IC50 (hT2R8; Table A, read-out: hT2R8 IC50): 2.35 µM
16 | CNc1cnn(Cc2c(C)noc2C)c1 [Example 4-63, 1-((3,5-dimethylisoxazol-4-yl)methyl)-N-methyl-1H-pyrazol-4-amine] | – | – | IC50 (hT2R8; Table A, read-out: hT2R8 IC50): 8.76 µM
17 | Cc1noc(C)c1Cn1cc(NC(=S)Nc2ccccc2F)cn1 [Example 4-105, 1-(1-((3,5-dimethylisoxazol-4-yl)methyl)-1H-pyrazol-4-yl)-3-(2-fluorophenyl)thiourea] | – | – | IC50 (hT2R8; Table A, read-out: hT2R8 IC50): 1.63 µM
18 | Cc1noc(C)c1Cn1cc(N2C(=O)N(Cc3ccc(O)cc3)C(C)(C)C2=O)cn1 [Example 12-38, 3-(1-((3,5-dimethylisoxazol-4-yl)methyl)-1H-pyrazol-4-yl)-1-(4-hydroxybenzyl)-5,5-dimethylimidazolidine-2,4-dione] | – | – | IC50 (hT2R8; [3]): 0.07 µM

The next lines start with results.

Row | IC50 (hT2R8; [1]) | IC50 (hT2R8; [2]) | SMILES | further results
19 | 0.02 µM | 0.024 µM | COCn1c(=O)n(-c2cnn(Cc3c(C)noc3C)c2)c(=O)n1Cc1ccccc1 [Example 10-89, 1-benzyl-4-(1-((3,5-dimethylisoxazol-4-yl)methyl)-1H-pyrazol-4-yl)-2-(methoxymethyl)-1,2,4-triazolidine-3,5-dione] | –
20 | 0.09 µM | 0.102 µM | COC(=O)c1cccc(CN2CC(=O)N(c3cnn(Cc4c(C)noc4C)c3)C2=O)c1 [Example 10-7, methyl 3-((3-(1-((3,5-dimethylisoxazol-4-yl)methyl)-1H-pyrazol-4-yl)-2,4-dioxoimidazolidin-1-yl)methyl)benzoate] | –
21 | 0.71 µM | 1.25 µM | Cc1noc(C)c1Cn1cc(N2CCN(Cc3ccccc3)C2=O)cn1 [Example 10-88, 1-benzyl-3-(1-((3,5-dimethylisoxazol-4-yl)methyl)-1H-pyrazol-4-yl)imidazolidin-2-One] | –
22 | 0.72 µM | 0.721 µM | Cc1noc(C)c1Cn1cc(N2C(=O)CN(Cc3cccc(CO)n3)C2=O)cn1 [Example 10-71, 3-(1-((3,5-dimethylisoxazol-4-yl)methyl)-1H-pyrazol-4-yl)-1-((6-(hydroxymethyl)pyridin-2-yl)methyl)imidazolidine-2,4-dione] | –
23 | – | 0.048 µM | Cc1noc(C)c1Cn1cc(N2C(=O)CN(Cc3ccc(C#N)cc3)C2=O)cn1 [Example 10-32, 4-((3-(1-((3,5-dimethylisoxazol-4-yl)methyl)-1H-pyrazol-4-yl)-2,4-dioxoimidazolidin-1-yl)methyl)benzonitrile] | IC50 (hT2R8; [4]): 0.05 µM
24 | – | 0.051 µM | COc1ccc(CN2CC(=O)N(c3cnn(Cc4c(C)noc4C)c3)C2=O)cc1OC [Example 10-35, 1-(3,4-dimethoxybenzyl)-3-(1-((3,5-dimethylisoxazol-4-yl)methyl)-1H-pyrazol-4-yl)imidazolidine-2,4-dione] | IC50 (hT2R8; [4]): 0.06 µM
25 | 0.58 µM | 0.966 µM | Cc1noc(C)c1Cn1cc(N2C(=O)CN(C)C2=O)cn1 [Example 10-51, 3-(1-((3,5-dimethylisoxazol-4-yl)methyl)-1H-pyrazol-4-yl)-1-methylimidazolidine-2,4-dione] | –
26 | 0.01 µM | 0.012 µM | Cc1noc(C)c1Cn1cc(-n2c(=O)n(C)n(CCc3ccc(F)cc3)c2=O)cn1 [Example 10-66, 4-(1-((3,5-dimethylisoxazol-4-yl)methyl)-1H-pyrazol-4-yl)-1-(4-fluorophenethyl)-2-methyl-1,2,4-triazolidine-3,5-dione] | –
27 | 0.03 µM | – | COCc1cccc(CN2C(=O)N(c3cnn(Cc4c(C)noc4C)c3)C(=O)C23CC3)c1 [Example 12-14, 6-(1-((3,5-dimethylisoxazol-4-yl)methyl)-1H-pyrazol-4-yl)-4-(3-(methoxymethyl)benzyl)-4,6-diazaspiro[2.4]heptane-5,7-dione] | –
28 | – | 1.22 µM | Cc1noc(C)c1Cn1cc(N2C(=O)CN(Cc3cccc(CN(C)C)c3)C2=O)cn1 [Example 10-37, 1-(3-((dimethylamino)methyl)benzyl)-3-(1-((3,5-dimethylisoxazol-4-yl)methyl)-1H-pyrazol-4-yl)imidazolidine-2,4-dione] | IC50 (hT2R8; [4]): 1.2 µM
29 | – | 3.12 µM | COc1ccc(CN2CC(=O)N(c3cnn(Cc4c(C)noc4C)c3)C2=O)cc1 [Example 10-29, 3-(1-((3,5-dimethylisoxazol-4-yl)methyl)-1H-pyrazol-4-yl)-1-(4-methoxybenzyl)imidazolidine-2,4-dione] | IC50 (hT2R8; [4]): 0.07 µM
30 | – | 0.016 µM | CSc1ccccc1CN1CC(=O)N(c2cnn(Cc3c(C)noc3C)c2)C1=O [Example 10-15, 3-(1-((3,5-dimethylisoxazol-4-yl)methyl)-1H-pyrazol-4-yl)-1-(2-(methylthio)benzyl)imidazolidine-2,4-dione] | IC50 (hT2R8; [4]): 0.03 µM
31 | 0.3 µM | – | COc1cc(CN2C(=O)N(c3cnn(Cc4c(C)noc4C)c3)C(=O)C2(C)C)cc(OC)c1 [Example 12-18, 1-(3,5-dimethoxybenzyl)-3-(1-((3,5-dimethylisoxazol-4-yl)methyl)-1H-pyrazol-4-yl)-5,5-dimethylimidazolidine-2,4-dione] | –
32 | 0.04 µM | 0.479 µM | Cc1noc(C)c1CN1CC(=O)N(c2cnn(Cc3c(C)noc3C)c2)C1=O [Example 10-55, 1-((3,5-dimethylisoxazol-4-yl)methyl)-3-(1-((3,5-dimethylisoxazol-4-yl)methyl)-1H-pyrazol-4-yl)imidazolidine-2,4-dione] | –
